Reference: PMC6324787, “Deletion of genes involved in the ketogluconate metabolism, Entner-Doudoroff pathway, and glucose dehydrogenase increase local and invasive virulence phenotypes in Streptococcus pneumoniae” (PLoS ONE, 2019)

Columns and labels:
[1] = target: T1, SP 0318 (Streptococcus pneumoniae, UniProt A0A0H2UNG9); assay: ADP-glucokinase / G6PDH-coupled NADPH formation, A340; type: biochemical; conditions: 10 mM KDG, 2.5 mM ATP, 10 mM MgCl2, 50 mM Tris-Cl, pH 8.5, 37 °C
T1 construct: gene SP_0318
T1 sequence (A0A0H2UNG9 1-333): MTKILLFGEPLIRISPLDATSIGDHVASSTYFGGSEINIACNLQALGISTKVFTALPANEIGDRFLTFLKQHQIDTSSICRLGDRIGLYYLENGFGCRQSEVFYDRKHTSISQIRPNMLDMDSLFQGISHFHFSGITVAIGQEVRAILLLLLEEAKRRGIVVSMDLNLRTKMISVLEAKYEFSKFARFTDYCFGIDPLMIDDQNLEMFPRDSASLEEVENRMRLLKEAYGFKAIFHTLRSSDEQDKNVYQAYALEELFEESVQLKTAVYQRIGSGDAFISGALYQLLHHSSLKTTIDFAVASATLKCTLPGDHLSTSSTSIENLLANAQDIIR

[2] = target: T2, SP 0320 (Streptococcus pneumoniae, UniProt A0A0H2UNC9); assay: NADH oxidation, A340; type: biochemical; conditions: 300 mM potassium 5-keto-D-gluconate, 150 µM NADH, 100 mM Tris-Cl, pH 6.5, 37 °C
T2 construct: gene SP_0320
T2 sequence (A0A0H2UNC9 1-271): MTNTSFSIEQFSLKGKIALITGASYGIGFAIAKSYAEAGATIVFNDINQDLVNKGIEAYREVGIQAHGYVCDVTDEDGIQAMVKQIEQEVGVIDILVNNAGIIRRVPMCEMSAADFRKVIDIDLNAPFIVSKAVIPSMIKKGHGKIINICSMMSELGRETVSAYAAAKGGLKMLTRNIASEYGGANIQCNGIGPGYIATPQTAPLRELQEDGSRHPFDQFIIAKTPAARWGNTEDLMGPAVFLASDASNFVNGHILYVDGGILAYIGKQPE

| SMILES | ADP-glucokinase / G6PDH-coupled NADPH formation, A340 [1] | NADH oxidation, A340 [2] |
| --- | --- | --- |
| Nc1ncnc2c1ncn2[C@@H]1O[C@H](COP(=O)(O)OP(=O)(O)OP(=O)(O)O)[C@@H](O)[C@H]1O [ATP] | phosphorylation of 2-keto-3-deoxygluconate (KDG) in the presence of ATP to give KDGP |  |
| NC(=O)C1=CN([C@@H]2O[C@H](COP(=O)(O)OP(=O)(O)OC[C@H]3O[C@@H](n4cnc5c(N)ncnc54)[C@H](O)[C@@H]3O)[C@@H](O)[C@H]2O)C=CC1 [NADH] |  | reduction of 5-keto-D-gluconate to D-gluconate with the subsequent oxidation of NADH |
